test system: AMPK; assay: AMPK enzyme activity assay (Delfia technology, AMARA peptide substrate); type: biochemical; settings: compound at 30 μM vs AMP at 200 μM
Description: The following biological test allows the determination of the efficacy of compounds of formula (1) onto AMPK protein.
AMPK enzyme activities were assayed by using a Delfia technology. AMPK enzyme activities were carried out in microtiter plates in the presence of a synthetic peptide substrate (AMARAASAAALARRR, the “AMARA” peptide) and activators in serial dilutions. Reactions were initiated by the addition of AMPK. Enzyme activity was assayed by using an anti-phosphoserine antibody to measure the quantity of phosphate incorporated into the AMARAA.
No: Number of the molecule
Activity: Ratio between the % of control (basal activity) of compound of formula (1) at 30 μM and the % of control (basal activity) of AMP (natural substrate) at 200 μM.

| Compound | Activity: Ratio between the % of control (basal activity) of compound of formula (1) at 30 μM and the % of control (basal activity) of AMP (natural substrate) at 200 μM |
| --- | --- |
| O=C1Nc2scc(-c3ccc(F)cc3)c2C(=O)C1(F)c1ccccc1 (centres unmarked) [No 189, 5-fluoro-3-(4-fluorophenyl)-5-phenyl-7H-thieno[2,3-b]pyridine-4,6-dione] | A (0%<A<50%) |
| O=C1Nc2scc(-c3ccc(O)c(F)c3)c2C(=O)C1(F)c1ccccc1 (centres unmarked) [No 194, 5-fluoro-3-(3-fluoro-4-hydroxy-phenyl)-5-phenyl-7H-thieno[2,3-b]pyridine-4,6-dione] | C (C≧75%) |
| COc1ccccc1-c1c(Cl)sc2c1C(=O)C(C)(c1ccc(C)cc1)C(=O)N2 (centres unmarked) [No 65, 2-chloro-3-(2-methoxyphenyl)-5-methyl-5-(p-tolyl)-7H-thieno[2,3-b]pyridine-4,6-dione] | C (C≧75%) |
| 2-chloro-5-fluoro-3-(5-fluoro-2-hydroxy-phenyl)-5-phenyl-7H-thieno[2,3-b]pyridine-4,6-dione [No 221] | C (C≧75%) |
| Cc1ccc(-c2c(F)sc3c2C(=O)C(F)(c2ccccc2)C(=O)N3)cc1O (centres unmarked) [No 116, 2,5-difluoro-3-(3-hydroxy-4-methyl-phenyl)-5-phenyl-7H-thieno[2,3-b]pyridine-4,6-dione] | C (C≧75%) |
| CCc1ccc(-c2c(Cl)sc3c2C(=O)C(F)(c2ccccc2)C(=O)N3)c(O)c1 (centres unmarked) [No 223, 2-chloro-3-(4-ethyl-2-hydroxy-phenyl)-5-fluoro-5-phenyl-7H-thieno[2,3-b]pyridine-4,6-dione] | C (C≧75%) |
| O=C1Nc2sc(Cl)c(-c3ccc(F)cc3O)c2C(=O)C1(F)c1ccccc1 (centres unmarked) [No 46, 2-chloro-5-fluoro-3-(4-fluoro-2-hydroxy-phenyl)-5-phenyl-7H-thieno[2,3-b]pyridine-4,6-dione] | B (50%≦B<75%) |
| COc1ccccc1-c1c(Cl)sc2c1C(=O)C(C)(c1cccc(F)c1)C(=O)N2 (centres unmarked) [No 66, 2-chloro-5-(3-fluorophenyl)-3-(2-methoxyphenyl)-5-methyl-7H-thieno[2,3-b]pyridine-4,6-dione] | C (C≧75%) |
| COc1cccc(C2(F)C(=O)Nc3sc(F)c(-c4ccccc4)c3C2=O)c1 (centres unmarked) [No 183, 2,5-difluoro-5-(3-methoxyphenyl)-3-phenyl-7H-thieno[2,3-b]pyridine-4,6-dione] | B (50%≦B<75%) |
| Cc1ccccc1-c1c(Cl)sc2c1C(=O)C(C)(c1ccccc1F)C(=O)N2 (centres unmarked) [No 47, 2-chloro-5-(2-fluorophenyl)-5-methyl-3-(o-tolyl)-7H-thieno[2,3-b]pyridine-4,6-dione] | A (0%<A<50%) |
| COc1cccc(C2(C)C(=O)Nc3sc(Cl)c(-c4cccc(C)c4)c3C2=O)c1 (centres unmarked) [No 126, 2-chloro-5-(3-methoxyphenyl)-5-methyl-3-(m-tolyl)-7H-thieno[2,3-b]pyridine-4,6-dione] | B (50%≦B<75%) |
| Cc1cccc(C2(C)C(=O)Nc3sc(Cl)c(-c4ccccc4)c3C2=O)c1 (centres unmarked) [No 33, 2-chloro-5-methyl-5-(m-tolyl)-3-phenyl-7H-thieno[2,3-b]pyridine-4,6-dione] | A (0%<A<50%) |
| O=C1Nc2sc(Cl)c(-c3cccc(F)c3)c2C(=O)C1(F)c1cccnc1 (centres unmarked) [No 212, 2-chloro-5-fluoro-3-(3-fluorophenyl)-5-(3-pyridyl)-7H-thieno[2,3-b]pyridine-4,6-dione] | C (C≧75%) |
| O=C1Nc2scc(-c3ccc(Br)cc3)c2C(=O)C1(F)c1cccnc1 (centres unmarked) [No 166, 3-(4-bromophenyl)-5-fluoro-5-(3-pyridyl)-7H-thieno[2,3-b]pyridine-4,6-dione] | A (0%<A<50%) |
| COc1ccc(-c2c(Cl)sc3c2C(=O)C(C)(c2cccc(C)c2)C(=O)N3)cc1 (centres unmarked) [No 87, 2-chloro-3-(4-methoxyphenyl)-5-methyl-5-(m-tolyl)-7H-thieno[2,3-b]pyridine-4,6-dione] | A (0%<A<50%) |
| Cc1cccc(C2(F)C(=O)Nc3sc(Cl)c(-c4ccc(F)cc4O)c3C2=O)c1 (centres unmarked) [No 184, 2-chloro-5-fluoro-3-(4-fluoro-2-hydroxy-phenyl)-5-(m-tolyl)-7H-thieno[2,3-b]pyridine-4,6-dione] | C (C≧75%) |
| Cc1ccc(-c2c(Cl)sc3c2C(=O)C(C)(c2ccc(F)cc2)C(=O)N3)cc1 (centres unmarked) [No 57, 2-chloro-5-(4-fluorophenyl)-5-methyl-3-(p-tolyl)-7H-thieno[2,3-b]pyridine-4,6-dione] | B (50%≦B<75%) |
| O=C1Nc2scc(-c3ccccc3)c2C(=O)C1(c1ccccc1)c1ccccc1 [No 9, 3,5,5-triphenyl-7H-thieno[2,3-b]pyridine-4,6-dione] | A (0%<A<50%) |
| COc1ccc(C2(F)C(=O)Nc3sc(Cl)c(-c4ccc(F)cc4O)c3C2=O)cc1OC (centres unmarked) [No 219, 2-chloro-5-(3,4-dimethoxyphenyl)-5-fluoro-3-(4-fluoro-2-hydroxy-phenyl)-7H-thieno[2,3-b]pyridine-4,6-dione] | C (C≧75%) |
| O=C1Nc2sc(F)c(-c3ccc(Cl)cc3)c2C(=O)C1(F)c1ccccc1 (centres unmarked) [No 173, 3-(4-chlorophenyl)-2,5-difluoro-5-phenyl-7H-thieno[2,3-b]pyridine-4,6-dione] | B (50%≦B<75%) |
| Cc1sc2c(c1-c1ccccc1)C(=O)C(F)(c1ccccc1)C(=O)N2 (centres unmarked) [No 70, 5-fluoro-2-methyl-3,5-diphenyl-7H-thieno[2,3-b]pyridine-4,6-dione] | C (C≧75%) |
| Cc1ccccc1-c1c(F)sc2c1C(=O)C(F)(c1ccccc1)C(=O)N2 (centres unmarked) [No 130, 2,5-difluoro-3-(o-tolyl)-5-phenyl-7H-thieno[2,3-b]pyridine-4,6-dione] | B (50%≦B<75%) |
| COc1cccc(C2(F)C(=O)Nc3scc(-c4ccccc4)c3C2=O)c1 (centres unmarked) [No 182, 5-fluoro-5-(3-methoxyphenyl)-3-phenyl-7H-thieno[2,3-b]pyridine-4,6-dione] | C (C≧75%) |

Reference: patent publication US9365584B2, “Thieno [2,3-B] pyridinedione activators of AMPK and therapeutic uses thereof” (Poxel, priority 2009, dated 2016)
